Laboratory results as given in paper PMC10745061 (Marine Drugs, 2023).
Where a SMILES comes first, the peptide text is derived from it. Bridges are numbered along the chain shown (N, C = ends).

Assays:
E. coli MDR CI 1057 = details: 37 °C
Description: Resistance induction experiments were performed using the previously described method. Briefly, on day one, the overnight culture of wild-type bacteria was diluted with the 2× MH broth supplemented with 1.8% NaCl to reach a final cell concentration of 10^6 CFU/mL.

RP-HPLC retention time = assay type: physicochemical; details: semi-preparative RP-HPLC, C18 column, linear gradient 5 to 80% (v/v) acetonitrile in water with 0.1% TFA within 50 min
Description: Figure 2 Structure analysis of the novel BRICHOS-related peptides HfBRI-25 and HfBRI-28. (A) Characteristics of the obtained peptides. ^1 Mean Kyte–Doolittle hydrophobicity index (GRAVY) was calculated using the Expasy ProtParam tool. The maximum and minimum values of this index are +4.5 and −4.5 for poly-Ile and poly-Arg sequences, respectively. ^2 Percentage of hydrophobic amino acids was calculated using the APD3 database. ^3 Retention times were measured using semi-preparative reversed-phase high-performance liquid chromatography (RP-HPLC) on a C18 column with a linear gradient from 5 to 80% (v/v) acetonitrile in water containing 0.1% trifluoroacetic acid (TFA) within 50 min. ^4 Molecular masses were calculated by considering the presence of four Cys residues forming two disulfide bonds in the case of HfBRI-25. ^5 Molecular masses were determined experimentally using MALDI-TOF mass spectrometry. (B) Spatial structures of HfBRI-25 and HfBRI-28 were modeled using the AlphaFold algorithm (ColabFold server). The top-rated models, according to predicted local distance difference test (pLDDT) scores, were visualized by the PyMOL software. (C) The CD-spectra of the peptides in water or in the presence of 30 mM DPC micelles. (D) The CONTINLL program was used for CD data analysis. […]

In the case of `CC[C@H](C)[C@@H]1NC(=O)[C@H](Cc2c[nH]c3ccccc23)NC(=O)[C@H](C(C)C)NC(=O)[C@@H]2CSSC[C@H](NC(=O)[C@H](CCCNC(=N)N)NC(=O)[C@H](CCCNC(=N)N)NC(=O)[C@H](C(C)C)NC(=O)[C@H](CCCNC(=N)N)NC(=O)[C@H](CCCNC(=N)N)NC(=O)CNC(=O)[C@H](CC(N)=O)NC(=O)[C@H](C(C)C)NC(=O)[C@H](CO)NC1=O)C(=O)N[C@@H](Cc1c[nH]c3ccccc13)C(=O)NCC(=O)N[C@@H](CO)C(=O)NCC(=O)N[C@H](C(=O)O)CSSC[C@H](NC(=O)CNC(=O)[C@H](CCCNC(=N)N)NC(=O)[C@@H]1CCCN1C(=O)[C@@H](N)CO)C(=O)N[C@@H](Cc1ccccc1)C(=O)N2` [HfBRI-25] (H-SPRGCFCVWISVNGRRVRRCWGSGC-OH; disulfide 5-25, 7-20; N-terminus and C-terminus assumed), the “Change of MIC value after resistance selection” value (E. coli MDR CI 1057; 21 passages (days) in the presence of the agent, MHB + 0.9% NaCl) is reported as “two-fold”, the “Initial MIC value before resistance selection” value (E. coli MDR CI 1057; Mueller–Hinton broth supplemented with 0.9% NaCl) is reported as 1 µM and the “RP-HPLC Retention Time” value (RP-HPLC retention time) is reported as 27.5 min.
